The values that follow come from patent US20050037946A1, “Methods and compositions for treating cardiovascular disease using 1722, 10280, 59917, 85553, 10653, 9235, 21668, 17794, 2210, 6169, 10102, 21061, 17662, 1468, 12282, 6350, 9035, 1820, 23652, 7301, 8925, 8701, 3533, 9462, 9123, 12788, 17729, 65552, 1261, 21476, 33770, 9380, 2569654, 33556, 53656, …” (Millennium Pharmaceuticals, Inc., priority 2003, published 2005).

Structures are written as SMILES.

The conditions of data set [1]: humans; cited from earlier work.
The next data set relates to RAW 264.7. The note with it: RAW 264.7, through down-regulating the activation of Akt; cited from earlier work.
The next data set concerns isolated rat arterioles. The note with it: compared to basal tone; cited from earlier work.
In a further data set the test system is glycine cleavage system. The note with it: cited from earlier work.
The subject of a further data set is 13886 mRNA. As to the kind of experiment: 13886 mRNA in aortas of treated rats (TaqMan). It counts as in vivo. As to conditions: seven days, vs vehicle treated controls, p<0.005 ANOVA. From the text: (§1) This example describes the TaqMan™ procedure. The Taqman™ procedure is a quantitative, reverse transcription PCR-based approach for detecting mRNA. The RT-PCR reaction exploits the 5′ nuclease activity of AmpliTaq Gold™ DNA Polymerase to cleave a TaqMan™ probe during PCR. Briefly, cDNA was generated from the samples of interest, e.g., heart, kidney, liver, skeletal muscle, and various vessels, and used as the starting material for PCR amplification. In addition to the 5′ and 3′ gene-specific primers, a gene-specific oligonucleotide probe (complementary to the region being amplified) was included in the reaction (i.e., the Taqman™ probe). […]
(§2) During the PCR reaction, cleavage of the probe separates the reporter dye and the quencher dye, resulting in increased fluorescence of the reporter. Accumulation of PCR products is detected directly by monitoring the increase in fluorescence of the reporter dye. When the probe is intact, the proximity of the reporter dye to the quencher dye results in suppression of the reporter fluorescence. […]
(Quantitative PCR measures a nucleic acid by following its amplification.)

For another data set, the system named is 6169 mRNA. The experiment in a line: 6169 mRNA in human primary hepatocytes (TaqMan). It counts as cell-based.
Text: as §1, §2

A further data set has as its system 32345 mRNA. As to the kind of experiment: 32345 mRNA in HUVECs (TaqMan). It counts as cell-based, human.
Text: as §1, §2

Data set [2] concerns the target 1722 (Protein Kinase C mu or PKD) (Homo sapiens, UniProt Q15139). The note with it: Biochem Pharmacol. 2001; cited from earlier work.
The subject of a further data set is 2569654 mRNA. As to the kind of experiment: 2569654 mRNA in marmoset models (TaqMan). Format: in vivo. The source says: (§3) This example describes the TaqMan™ procedure. The Taqman™ procedure is a quantitative, reverse transcription PCR-based approach for detecting mRNA. The RT-PCR reaction exploits the 5′ nuclease activity of AmpliTaq Gold™ DNA Polymerase to cleave a TaqMan™ probe during PCR. Briefly, cDNA was generated from the samples of interest, e.g., heart, kidney, liver, skeletal muscle, and various vessels, and used as the starting material for PCR amplification. In addition to the 5′ and 3′ gene-specific primers, a gene-specific oligonucleotide probe (complementary to the region being amplified) was included in the reaction (i.e., the Taqman™ probe). The TaqMan™ probe includes the oligonucleotide with a fluorescent reporter dye covalently linked to the 5′ end of the probe (such as FAM (6-carboxyfluorescein), TET (6-carboxy4,7,2′,7′-tetrachlorofluorescein), JOE (6-carboxy-4,5-dichloro-2,7-dimethoxyfluorescein), or VIC) and a quencher dye (TAMRA (6-carboxy-N,N,N′,N′-tetramethylrhodamine) at the 3′ end of the probe.
(§4) During the PCR reaction, cleavage of the probe separates the reporter dye and the quencher dye, resulting in increased fluorescence of the reporter. Accumulation of PCR products is detected directly by monitoring the increase in fluorescence of the reporter dye. When the probe is intact, the proximity of the reporter dye to the quencher dye results in suppression of the reporter fluorescence. During PCR, if the target of interest is present, the probe specifically anneals between the forward and reverse primer sites. The 5′-3′ nucleolytic activity of the AmpliTaq™ Gold DNA Polymerase cleaves the probe between the reporter and the quencher only if the probe hybridizes to the target. The probe fragments are then displaced from the target, and polymerization of the strand continues. The 3′ end of the probe is blocked to prevent extension of the probe during PCR. […] RNA was prepared using the trizol method and treated with DNase to remove contaminating genomic DNA. cDNA was synthesized using standard techniques.

Another data set relates to 3533 mRNA. As to the kind of experiment: 3533 mRNA regulation by lipid lowering drugs (TaqMan).
Text: as §3, §4

For data set [3] the following is noted: humans, betaine supplemented diets vs control group; cited from earlier work.
The next data set concerns 966 mRNA. The experiment in a line: 966 mRNA in aortic arches of mice given captopril (TaqMan). As to conditions: given for 6 or 12 weeks. It counts as in vivo.
Text: as §1, §2

A further data set relates to 1510 mRNA. The experiment in a line: 1510 mRNA in aortic arches of ApoE knockout mice (TaqMan). Format: in vivo. As to conditions: relative to abdominal aorta, 12 weeks.
Text: as §1, §2

1722 (Protein Kinase C mu or PKD), sequence (Q15139 whole entry): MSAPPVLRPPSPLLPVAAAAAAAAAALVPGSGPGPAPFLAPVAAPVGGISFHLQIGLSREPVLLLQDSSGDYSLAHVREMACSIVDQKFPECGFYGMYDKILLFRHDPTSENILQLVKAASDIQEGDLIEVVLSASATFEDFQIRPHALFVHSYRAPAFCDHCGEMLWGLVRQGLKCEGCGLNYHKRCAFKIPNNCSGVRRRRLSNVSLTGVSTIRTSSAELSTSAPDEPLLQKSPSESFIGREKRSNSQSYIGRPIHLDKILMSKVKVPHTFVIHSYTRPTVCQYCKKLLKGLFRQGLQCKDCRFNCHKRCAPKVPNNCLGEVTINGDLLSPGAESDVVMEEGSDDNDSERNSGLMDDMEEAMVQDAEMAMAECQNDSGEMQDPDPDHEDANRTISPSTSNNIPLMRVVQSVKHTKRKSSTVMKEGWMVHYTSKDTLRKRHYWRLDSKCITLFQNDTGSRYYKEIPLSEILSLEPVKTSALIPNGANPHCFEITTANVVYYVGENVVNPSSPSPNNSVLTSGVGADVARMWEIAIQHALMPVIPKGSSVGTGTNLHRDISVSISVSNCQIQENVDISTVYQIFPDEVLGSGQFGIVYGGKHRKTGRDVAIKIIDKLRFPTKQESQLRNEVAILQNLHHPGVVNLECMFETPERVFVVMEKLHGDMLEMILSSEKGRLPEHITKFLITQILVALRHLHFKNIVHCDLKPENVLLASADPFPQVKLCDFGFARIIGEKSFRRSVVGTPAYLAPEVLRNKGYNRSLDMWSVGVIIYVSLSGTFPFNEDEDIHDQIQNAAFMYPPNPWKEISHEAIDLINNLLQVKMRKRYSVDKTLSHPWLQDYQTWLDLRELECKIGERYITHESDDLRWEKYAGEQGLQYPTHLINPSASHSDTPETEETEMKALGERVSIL

As to `CC1=C(/C=C/C(C)=C\C=C\C(C)=C\C(=O)O)C(C)(C)CCC1` [9-cis retinoic acid], the lipid profile result in [1] was “increase total cholesterol, ILDL-cholesterol, apoB and triglyceride levels and decrease HDL-cholesterol”. Take `CC1=C(/C=C/C(C)=C/C=C/C(C)=C\C(=O)O)C(C)(C)CCC1` [13-cis retinoic acid]: the lipid profile entry in [1] is “increase total cholesterol, ILDL-cholesterol, apoB and triglyceride levels and decrease HDL-cholesterol”.

As to `CCCCCCCCCCCCC/C=C/[C@@H](O)[C@H](CO)NC(C)=O` [C(2)-ceramide], the “LPS-induced NO production” value in the data set on RAW 264.7 was “inhibit”.

In the case of `COc1cc2c(c(OC)c1OC)-c1ccc(OC)c(=O)cc1[C@@H](NC(C)=O)CC2` [Colchicine], the vasoconstriction in the data set on isolated rat arterioles is listed as 33.9%.

For `NCCS` [Cysteamine], in the data set on glycine cleavage system, the “inhibition of the glycine cleavage system” value was “potent inhibitor”. `COC(=O)[C@@H](N)CCCNC(=N)N[N+](=O)[O-]` [L-NAME]: the “expression of 13886 mRNA” value in the data set on 13886 mRNA is “significantly down-regulated”. `CC[C@H](C)C(=O)O[C@H]1CCC=C2C=C[C@H](C)[C@H](CC[C@@H]3C[C@@H](O)CC(=O)O3)[C@H]21` [Mevastatin]: in the data set on 6169 mRNA, the “6169 mRNA upregulated” value was 2.4 fold. Moreover, the “32345 mRNA expression” value with 32345 mRNA was “upregulated”. Take `Oc1ccc(C=Cc2cc(O)cc(O)c2)cc1` [Resveratrol]: the “autophosphorylation of 1722” value in data set [2] is recorded as “inhibit”. `N[C@@H](Cc1cc(I)c(Oc2ccc(O)c(I)c2)c(I)c1)C(=O)O` [T3]: the “2569654 mRNA expression” value in the data set on 2569654 mRNA was “upregulated”. Further, in the data set with 3533 mRNA, the “3533 mRNA expression” value was “downregulated”. Consider `C[N+](C)(C)CC(=O)[O-]` [betaine, trimethylglycine], for which, in [3], the plasma homocysteine concentration entry is recorded as “decrease”; the “total and LDL cholesterol concentration” value is recorded as “small but significant increase”. Consider `C[C@H](CS)C(=O)N1CCC[C@H]1C(=O)O` [captopril], for which the “upregulation of 966 mRNA in mice aortic arches” value in the data set with 966 mRNA is reported as “inhibited”. In addition, the “elevated expression of 1510 mRNA in aortic arches of ApoE knockout mice” value in the data set on 1510 mRNA is “blocked”.
